These are literature values, as cited in patent US4231928A, “Antibacterial agents” (priority 1979, dated 1980).

The structures appear in SMILES notation.

The data set deals with Pseudomonas aeruginosa. The following applies: prior art penicillins; cited from earlier work.

For the molecule `CC1(C)S[C@@H]2[C@H](NC(=O)[C@H](C(=O)O)c3ccsc3)C(=O)N2[C@H]1C(=O)O` [ticarcillin], the “potency against Pseudomonas aeruginosa (in words)” value is reported as “only a relatively low potency”.
